Assay results reported in the NIST ThermoML archive (doi:10.1021/je100581m).

Test: xn = mol fraction of the nth substance listed
Details: Liquid, Vibrating tube method

C=CC(C)(O)CCC=C(C)C (stereo not given) [3,7-dimethyl-1,6-octadien-3-ol] + CCCO
mass density [kg/m3]
Details | x2 = 0 | x2 = 0.107 | x2 = 0.206 | x2 = 0.3066 | x2 = 0.4064 | x2 = 0.501 | x2 = 0.6034 | x2 = 0.7055 | x2 = 0.7985 | x2 = 0.898
313.15 K, 100 kPa | 844.5 | 842.1 | 840.1 | 837.3 | 834.1 | 830.5 | 825.6 | 819.1 | 811.6 | 801.2
313.15 K, 5000 kPa | 848.2 | 845.8 | 843.8 | 841.1 | 837.9 | 834.4 | 829.5 | 823.1 | 815.6 | 805.3
313.15 K, 10000 kPa | 851.6 | 849.3 | 847.3 | 844.6 | 841.5 | 838 | 833.2 | 826.8 | 819.4 | 809.2
313.15 K, 15000 kPa | 855 | 852.8 | 850.8 | 848.1 | 845.1 | 841.5 | 836.7 | 830.4 | 823.2 | 813.1
313.15 K, 20000 kPa | 858.4 | 856.1 | 854.1 | 851.5 | 848.4 | 844.9 | 840.2 | 833.9 | 826.7 | 816.7
328.15 K, 100 kPa | 831.7 | 829.4 | 827.3 | 824.5 | 821.3 | 817.7 | 812.8 | 806.3 | 799 | 788.7
328.15 K, 5000 kPa | 835.6 | 833.3 | 831.2 | 828.5 | 825.3 | 821.8 | 816.9 | 810.5 | 803.3 | 793.1
328.15 K, 10000 kPa | 839.5 | 837.2 | 835.2 | 832.5 | 829.3 | 825.8 | 821 | 814.7 | 807.5 | 797.5
328.15 K, 15000 kPa | 843.1 | 840.9 | 838.8 | 836.2 | 833 | 829.5 | 824.8 | 818.5 | 811.4 | 801.5
328.15 K, 20000 kPa | 846.7 | 844.4 | 842.4 | 839.8 | 836.7 | 833.2 | 828.5 | 822.3 | 815.2 | 805.3
